# “And” between values parts separate entries of the source, which are not always exact repeats. Equal values may be shown once. Read-outs that look alike come from different tables or passages of the source.
# Assay: Single dose plasma pharmacokinetics in CD1 mice
# Format: in vivo, mouse
# Experimental: For single dose pharmacokinetic studies, plasma samples (40 μL) were mixed with 200 μL of a water-methanol (1:9, v/v) containing the internal standard elacridar at 80 ng/mL. After mixing by pipetting and centrifuging for 4 min at 5500 x g, 0.25 μL of the supernatant was injected into LC-MS/MS system. […] Mobile phase A was acetonitrile/water (5:95, v/v) containing 1% formic acid, and mobile phase B was acetonitrile containing 0.1% formic acid. The gradient was initiated with mobile phase B at 10% with a flow rate of 0.4 mL/min, increased to 100% over 0.9 min and then and held for 0.1 min, and returned back to 10% mobile phase B and allowed to equilibrate until 2.2 min. An SCIEX 5000 triple quadrupole mass spectrometer operated in positive electrospray ionization mode was used for the detection of RA475. The lower limit of quantitation (LLOQ) in plasma was 10 ng/mL.
# Pharmacokinetic parameters were calculated from mean concentration-time data using non-compartmental methods in Phoenix WinNonlin version 8.3 (Certara, Princeton, NJ). Concentrations after the time 0 sample that were below the LLOQ were imputed with ½ that value (1 ng/mL). Any concentration that was determined to be an outlier by the Grubbs’s outlier test were excluded from analysis. The maximum plasma concentration (Cmax) and time to Cmax (Tmax) were the observed values. The AUClast was calculated using the log-linear trapezoidal method. AUC was extrapolated to infinity (AUCINF) by dividing the last quantifiable concentration by the terminal disposition rate constant (λz). The λz was determined from at least 3 points on the slope of the terminal phase of the concentration-time profile. The terminal half-life (T1/2) was determined by dividing 0.693 by λz. Clearance (Cl) or apparent Cl (Cl/F) was calculated by dividing the dose administered by AUCINF. Volume of distribution (V) or apparent V (V/F) was calculated by dividing Cl or Cl/F by λz. […] The oral and IP bioavailability was calculated as: F(%)=DoseIV×AUCINFPO/DosePO×[…].100%
# The Method of Bailer was used to estimate the variance of AUC given the calculated variance of the mean concentration at each time point. A pairwise comparison utilizing Z test was used to determine whether there was a significant difference between RA475 exposures as expressed by AUC last. Additionally, the Up284 exposure was truncated to 8 h and compared to the same route of administration and exposure as RA475. In all cases, p < 0.05 was considered statistically significant.
# CD1 (n = 4 per time point and condition; 8 weeks old, 26.8±3g) mice were administered a single dose of RA475, either IV (10 mg/kg), PO (40 mg/kg), or IP (40 mg/kg), and thereafter serial blood plasma samples were analyzed for RA475 levels by LC–MS/MS. The animals were randomly assigned to the treatment groups (S9 Table) and fasted for 4 h before dosing. Eight time points for IV and IP (0.083, 0.25, 0.5, 1, 2, 4, 6, and 8 h) and seven time points for PO (0.25, 0.5, 1, 2, 4, 6, and 8) administration were set for this pharmacokinetic study. Mice were injected IP with 2,2,2-tribromoethanol at the dose of 150 mg/kg prior to drawing the blood in microtainers containing K3EDTA via retro-orbital bleeding. Blood samples were centrifuged 10 min at 3000 rpm. All samples were immediately processed, flash-frozen and stored at -70°C until subsequent analysis. No obvious adverse effects were observed during this PK study. The average RA475 plasma concentrations data for IV, IP, and PO dosed groups (S10–S12 Tables) is graphically presented in Fig 4, and may be compared to published data for Up284 [37]. Pharmacokinetic parameters were calculated from mean concentration-time data using non-compartmental methods in Phoenix WinNonlin version 8.3 (Certara, Princeton, NJ) (S13 Table). Using the Method of Bailer, there was no difference in dose normalized AUClast by any route of administration of RA475.
# [1] = male, CD1, mouse, plasma, ip, 40 mg/kg, IP 40 mg/Kg
# [2] = male, CD1, mouse, plasma, po, 40 mg/kg, PO 40 mg/Kg
# [3] = male, CD1, mouse, plasma, IP 40 mg/kg
# [4] = male, CD1, mouse, plasma, IV 10 mg/kg
# [5] = male, CD1, mouse, plasma, PO 40 mg/kg
smiles,measurement,setting,value
"Cl.Cl.N#Cc1ccc(/C=C2/C(=O)/C(=C/c3ccc(C#N)cc3)C23CCN(C(=N)N)CC3)cc1 [RA475, 1,3-bis((E)-4-cyanobenzylidene)-2-oxo-7-azaspiro[3.5]nonane-7-carboximidamide dihydrochloride]",concentration at 360 min,"CD1, mouse, plasma, ip, 40 mg/kg, IP 40 mg/Kg, 360 min, read-out: Plasma concentration, Group A-D",327 ng/mL
same,bioavailability,"CD1, mouse, plasma, IP 40 mg/kg",103%
same,bioavailability,"CD1, mouse, plasma, PO 40 mg/kg",1.1%
same,"Plasma concentration, Group A-D","IP 40 mg/Kg, 240 min, 40 mg/kg",484 ng/mL and 577 ng/mL and 614 ng/mL
same,"Plasma concentration, Group A-D","IP 40 mg/Kg, 480 min, 40 mg/kg",118 ng/mL and 174 ng/mL and 125 ng/mL
same,"Plasma concentration, Group A-D","PO 40 mg/Kg, 30 min, 40 mg/kg",60 ng/mL and 57 ng/mL and 52 ng/mL
same,"Plasma concentration, Group A-D","PO 40 mg/Kg, 60 min, 40 mg/kg",33 ng/mL and 35 ng/mL and 44 ng/mL
same,"Plasma concentration, Mean","PO 40 mg/Kg, 240 min",BQL
same,"Plasma concentration, Mean","PO 40 mg/Kg, 360 min",BQL
same,"Plasma concentration, Group A-D","PO 40 mg/Kg, 360 min, LLOQ 10 ng/mL",BQL
same,"Plasma concentration, Mean","PO 40 mg/Kg, 480 min",BQL
same,"Plasma concentration, Group A-D","PO 40 mg/Kg, 480 min, LLOQ 10 ng/mL",BQL
same,"dose-normalized Cmax, fold higher than Up284",RA475 vs Up284,2.3 fold
same,concentration at 15 min,[1],11500 ng/mL
same,concentration at 30 min,"male, CD1, mouse, plasma, ip, 40 mg/kg, IP 40 mg/Kg, 30 min, read-out: Plasma concentration, Mean",9350 ng/mL
same,concentration at 60 min,"male, CD1, mouse, plasma, ip, 40 mg/kg, IP 40 mg/Kg, 60 min, read-out: Plasma concentration, Mean",3580 ng/mL
same,concentration at 120 min,[1],969 ng/mL
same,concentration at 240 min,"male, CD1, mouse, plasma, ip, 40 mg/kg, IP 40 mg/Kg, 240 min, read-out: Plasma concentration, Group A-D",356 ng/mL
same,concentration at 240 min,"male, CD1, mouse, plasma, ip, 40 mg/kg, IP 40 mg/Kg, 240 min, read-out: Plasma concentration, Mean",508 ng/mL
same,concentration at 360 min,"male, CD1, mouse, plasma, ip, 40 mg/kg, IP 40 mg/Kg, 360 min, read-out: Plasma concentration, Mean",125 ng/mL
same,concentration at 480 min,"male, CD1, mouse, plasma, ip, 40 mg/kg, IP 40 mg/Kg, 480 min, read-out: Plasma concentration, Group A-D",105 ng/mL
same,concentration at 480 min,"male, CD1, mouse, plasma, ip, 40 mg/kg, IP 40 mg/Kg, 480 min, read-out: Plasma concentration, Mean",131 ng/mL
same,concentration at 15 min,[2],141 ng/mL
same,concentration at 30 min,"male, CD1, mouse, plasma, po, 40 mg/kg, PO 40 mg/Kg, 30 min, read-out: Plasma concentration, Group A-D",69 ng/mL
same,concentration at 30 min,"male, CD1, mouse, plasma, po, 40 mg/kg, PO 40 mg/Kg, 30 min, read-out: Plasma concentration, Mean",60 ng/mL
same,concentration at 60 min,"male, CD1, mouse, plasma, po, 40 mg/kg, PO 40 mg/Kg, 60 min, read-out: Plasma concentration, Group A-D",29 ng/mL
same,concentration at 60 min,"male, CD1, mouse, plasma, po, 40 mg/kg, PO 40 mg/Kg, 60 min, read-out: Plasma concentration, Mean",35 ng/mL
same,concentration at 120 min,[2],20 ng/mL
same,concentration at 240 min,"male, CD1, mouse, plasma, po, 40 mg/kg, PO 40 mg/Kg, 240 min, LLOQ 10 ng/mL, read-out: Plasma concentration, Group A-D",20 ng/mL
same,AUC(0-t),[3],11300 ng·h/mL
same,Cmax,[3],11500 ng/mL
same,Tmax,[3],15 min
same,AUC(0-inf),[4],2780 ng·h/mL
same,AUC(0-t),[4],2730 ng·h/mL
same,Cmax,[4],10500 ng/mL
same,half-life,[4],126 min
same,AUC(0-inf),[5],139 ng·h/mL
same,AUC(0-t),[5],118 ng·h/mL
same,Cmax,[5],142 ng/mL
same,Tmax,[5],15 min
same,half-life,[5],96 min
same,CL/F,"male, CD1, mouse, plasma, PO 40 mg/kg, read-out: Cl or Cl/F (converted)",289 L/h/kg
same,Tmax,"mouse, plasma, IV 10 mg/kg, male CD1 mice",4.98 min
same,Cl or Cl/F,"plasma, IV 10 mg/kg",0.216 L/h/kg
same,V or V/F,"plasma, IV 10 mg/kg",10.9 L/kg
same,V or V/F,"plasma, PO 40 mg/kg",668.1 L/kg

# — paper PMC11239005, “Preclinical studies of RA475, a guanidine-substituted spirocyclic candidate RPN13/ADRM1 inhibitor for treatment of ovarian cancer” (PLOS ONE, 2024)
